# What was measured:
# [1] = target: c-AMP phosphodiesterase (erythrocytes); experiment: Inhibition of cyclic AMP phosphodiesterase (erythrocyte extract, radiochemical procedure); type: biochemical; details: phosphodiesterase extracted from erythrocytes
# Method: a) Inhibition of Cyclic AMP Phosphodiesterase
# The phosphodiesterase was extracted by mixing the erythrocytes with 4 volumes of 7 mM phosphate buffer, pH7.4, followed by sonification (3×10 sec; 100 W) and then centrifuging for 30 min at 4200×g.
# All supernatants were diluted in the extraction medium and assayed for phosphodiesterase activity within 6 hours of preparation, using the radiochemical procedure described in the above mentioned reference.
# [2] = system: Sephadex induced eosinophilia; experiment: Sephadex induced blood eosinophilia in the rat; type: in vivo; details: n = 12 or more
# Method: b) Induction of blood eosinophilia and the effects of drugs.
# Male Charles River Sprague Dawley rats weight between 250 to 300 g were used.
# The method used was a modification of that described by Laycock et al (Int. Arch. Appl. Immunol, (1986). 81, 363).
# Sephadex G200, particle size 40 to 120 micron, was suspended in isotonic saline at 0.5 mg/ml, and stored for 48 h at 4° C. 1 ml of the suspension was given intravenously to rats on days 0,2 and 5. A control group received saline. The test compound was given before the Sephadex on each occasion, with a contact time expected to give maximum activity at the time of the Sephadex administration. Blood was taken from the tail vein of the rats on day 7 for the determination of total and differential leucocyte counts.
# A control group of at least 6 animals was included each time a compound was evaluated. The control group received Sephadex and the vehicle without test compound. The results in the drug treated animals were compared with the control group. Alternatively, if the mean for the control group for any experiment was not statistically different from the mean of the sum of all of the controls groups, then the treated animal results for that experiment were compared with the mean of the sum of all the control groups.
# Total and differential leucocyte counts
# 20 μl samples of blood, taken from the tail vein of the rats, were added to 10 ml of Isoton II and, within 30 min, Zaponin (3 drops) was added, to lyse the erythrocytes. Five minutes later the total cell count was determined using a Coulter Counter Model DN. Differential leucocyte counts were carried out by fixing and staining a blood smear on a microscopic slide with May-Grunwald and Giemsa stains. A minimum of 400 cells were counted on each slide.
# Probability values were calculated using the Student's t test.
# The effect of the test compound upon Sephadex induced eosinophilia in the rat is set out in Table 3. The test compound was given orally 30 minutes before each injection of Sephadex.
# [3] = 25.0 mg/kg orally 30 mins before each Sephadex i.v. injection
Ki [1] [µM],melting point,Compound,further results
55.9,,"1,3-Di-cyclopropylmethyl-8-piperidinyl xanthine [Example 23]",
29.7,,"1,3-Di-cyclopropylmethyl-8-pyrrolidinyl xanthine [Example 22]",
17,,"CCCCn1c(=O)c2[nH]c([N+](=O)[O-])nc2n(CCCC)c1=O [Example 1, 1,3-Di-n-butyl-8-nitro xanthine]","% of Control Mean ± SEM (blood eosinophilia) [2, 3]: 109 ± 6 % of Control"
15.9,,"O=c1c2[nH]c([N+](=O)[O-])nc2n(CC2CC2)c(=O)n1CC1CC1 [Example 2, 1,3-Di-cyclopropylmethyl-8-nitro xanthine]",
6.1,220 °C,O=c1c2[nH]c([N+](=O)[O-])nc2n(CC2CCC2)c(=O)n1CC1CCC1 [Example 3],
4.8,148 to 150 °C,O=c1c2[nH]c([N+](=O)[O-])nc2n(CC2CCCC2)c(=O)n1CC1CCCC1 [Example 4],
5.4,140 °C,O=c1c2[nH]c([N+](=O)[O-])nc2n(CC2CCCCC2)c(=O)n1CC1CCCCC1 [Example 5],
1.3,,"CCCCn1c(=O)c2[nH]c(N)nc2n(CCCC)c1=O.Cl [Example 7, 1,3-Di-n-butyl-8-amino xanthine hydrochloride]","% of Control Mean ± SEM (blood eosinophilia) [2, 3]: 91 ± 6 % of Control"
,89 °C,"CCCCn1c(=O)c2[nH]c(N)nc2n(CCCC)c1=O [Example 8, 1,3-Di-n-butyl-8-amino xanthine]",
0.53,124 °C (dec.),Nc1nc2c([nH]1)c(=O)n(CC1CCC1)c(=O)n2CC1CCC1 [Example 10],% of Control Mean ± SEM (blood eosinophilia) ([2]; 5.0 mg/kg orally 30 mins before each Sephadex i.v. injection): 47 ± 4 % of Control
0.57,300 °C,Nc1nc2c([nH]1)c(=O)n(CC1CCCC1)c(=O)n2CC1CCCC1 [Example 11],
14,,"Nc1nc2c([nH]1)c(=O)n(C1CC1)c(=O)n2C1CC1 [Example 13, 1,3-Di-cyclopropyl-8-amino xanthine]",
15.1,,"O=c1c2[nH]c(Cl)nc2n(CC2CC2)c(=O)n1CC1CC1 [Example 17, 1,3-Di-cyclopropylmethyl-8-chloro xanthine]",
23,,"O=c1c2[nH]c(Cl)nc2n(C2CCCCC2)c(=O)n1C1CCCCC1 [Example 18, 1,3-Di-cyclohexyl-8-chloro xanthine]",
< 100,,"CCCCn1c(=O)c2[nH]c(N3CCCCC3)nc2n(CCCC)c1=O [Example 19, 1,3-Di-n-butyl-8-piperidino xanthine]",
11.5,,"O=c1c2[nH]c(N3CCOCC3)nc2n(CC2CC2)c(=O)n1CC1CC1 [Example 20, 1,3-Di-cyclopropylmethyl-8-morpholino xanthine]",
7.9,,"O=c1c2[nH]c(Br)nc2n(CC2CCCCC2)c(=O)n1CC1CCCCC1 [Example 25, 1,3-Di-cyclohexylmethyl-8-bromo xanthine]",

Compound,Ki [1] [µM],melting point,further results
"Nc1nc2c([nH]1)c(=O)n(CC1CC1)c(=O)n2CC1CC1 [Example 9, 1,3-Di-cyclopropylmethyl-8-amino xanthine]",1.6,,% of Control Mean ± SEM (blood eosinophilia) ([2]; 0.2 mg/kg orally 30 mins before each Sephadex i.v. injection): 61 ± 8 % of Control; % of Control Mean ± SEM (blood eosinophilia) ([2]; 2.0 mg/kg orally 30 mins before each Sephadex i.v. injection): 48 ± 7 % of Control
